This assay has as its target Transient receptor potential cation channel subfamily A member 1 (Homo sapiens, UniProt O75762). Briefly: Inhibition of human TRPA1 overexpressed in HEK293 cells assessed as reduction in AITC-induced calcium mobilization preincubated for 5 mins followed by AITC addition by FLIPR assay. It counts as cell-based. For orientation: A change in cytosolic calcium serves as a functional read-out for many receptors and channels.

Each structure is given as a SMILES string. A value given as a limit tells only on which side of the number the result lay.

The values below come from ChEMBL document CHEMBL5357058, “Norterpene Cyclic Peroxides from the Marine Sponge Diacarnus spinipoculum, Inhibitors of Transient Receptor Potential Ankyrin 1” (J Nat Prod, 2024).

Sequence of Transient receptor potential cation channel subfamily A member 1 (O75762 whole entry): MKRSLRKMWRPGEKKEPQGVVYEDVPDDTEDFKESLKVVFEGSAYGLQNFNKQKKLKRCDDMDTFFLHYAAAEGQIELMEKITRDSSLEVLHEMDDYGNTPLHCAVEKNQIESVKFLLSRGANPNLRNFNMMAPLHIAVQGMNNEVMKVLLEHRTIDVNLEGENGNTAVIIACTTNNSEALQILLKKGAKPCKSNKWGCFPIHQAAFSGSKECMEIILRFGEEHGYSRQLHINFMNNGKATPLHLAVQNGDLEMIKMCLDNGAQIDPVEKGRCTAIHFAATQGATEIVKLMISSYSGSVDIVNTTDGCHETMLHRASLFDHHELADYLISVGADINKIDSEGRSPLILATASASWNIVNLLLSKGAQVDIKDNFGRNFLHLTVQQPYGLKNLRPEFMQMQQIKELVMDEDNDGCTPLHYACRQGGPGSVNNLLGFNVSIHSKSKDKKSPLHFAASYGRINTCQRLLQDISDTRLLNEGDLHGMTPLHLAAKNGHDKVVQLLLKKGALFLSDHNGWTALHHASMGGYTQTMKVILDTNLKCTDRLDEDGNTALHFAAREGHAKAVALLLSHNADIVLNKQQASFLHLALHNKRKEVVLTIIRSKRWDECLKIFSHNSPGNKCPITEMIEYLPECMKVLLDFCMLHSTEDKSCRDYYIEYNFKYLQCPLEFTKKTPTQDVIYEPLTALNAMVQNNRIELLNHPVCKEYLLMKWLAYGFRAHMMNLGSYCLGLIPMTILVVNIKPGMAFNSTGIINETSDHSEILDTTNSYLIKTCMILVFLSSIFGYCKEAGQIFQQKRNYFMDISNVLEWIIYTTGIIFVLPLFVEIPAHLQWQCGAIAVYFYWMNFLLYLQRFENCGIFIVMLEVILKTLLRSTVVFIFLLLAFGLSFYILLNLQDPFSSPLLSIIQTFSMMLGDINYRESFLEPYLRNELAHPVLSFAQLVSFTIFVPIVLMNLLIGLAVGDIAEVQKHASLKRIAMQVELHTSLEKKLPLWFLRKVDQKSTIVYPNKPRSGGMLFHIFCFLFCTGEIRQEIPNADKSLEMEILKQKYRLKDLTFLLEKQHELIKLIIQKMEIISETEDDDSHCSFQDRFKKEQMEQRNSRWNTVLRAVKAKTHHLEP

Usually IC50 stands for the concentration that gives 50% inhibition. For the compound `CC1=C(CC[C@]2(C)CC[C@H]([C@@H](C)C(=O)O)OO2)C(C)(C)CCC1`, the IC50 is > 30 µM. With `C=C1CCCC(C)(C)C1CC[C@]1(C)CC[C@@H]([C@@H](C)C(=O)OC)OO1` (some centres not stated) the figure was > 30 µM. For `COC(=O)[C@H](C)[C@@H]1CC[C@@](C)(CCC2=C(C)CCCC2(C)C)OO1`, the IC50 came out at 29.3 µM. With `CC1=C(CC/C(C)=C/CC[C@]2(C)CC[C@@H]([C@H](C)C(=O)O)OO2)C(C)(C)CCC1` the figure was 5.6 µM; with `CC1=C(CC/C(C)=C/CC[C@@]2(C)CC[C@@H]([C@H](C)C(=O)O)OO2)C(C)(C)CCC1=O`, 15.3 µM; with `C=C1CCC[C@H]2[C@](C)(CC[C@@]3(C)CC[C@H]([C@@H](C)C(=O)O)OO3)[C@@H](C)CC[C@]12C`, 2 µM. Consider `C=C1CCC[C@H]2[C@](C)(CC[C@@]3(C)CC[C@H]([C@@H](C)C(=O)OC)OO3)[C@@H](C)CC[C@]12C`, for which the IC50 is 13.5 µM. Consider `COC(=O)[C@H](C)[C@H]1CC[C@@](C)(CCC2=C(C)C(O)CCC2(C)C)OO1` (mixture of isomers), for which the IC50 was > 30 µM. Consider `COC(=O)[C@H](C)[C@@H]1CC[C@@](C)(CCC2=C(C)C(O)CCC2(C)C)OO1` (mixture of isomers), for which the IC50 is > 30 µM. As to `COC(=O)[C@H](C)[C@@H]1CC[C@@](C)(CCC2=C(C)C(OC)CCC2(C)C)OO1` (mixture of isomers), the IC50 was > 30 µM. In the case of `COC(=O)[C@H](C)[C@H]1CC[C@@](C)(CCC2=C(C)C(OC)CCC2(C)C)OO1` (mixture of isomers), the IC50 is > 30 µM. `CC(=O)CCCC(C)(C)C(=O)CC/C(C)=C/CC[C@]1(C)CC[C@H]([C@@H](C)C(=O)O)OO1` [(+)-MUQUBILONE B]: the IC50 was > 30 µM.

In the case of `COC(=O)[C@H](C)[C@H]1CC[C@@](C)(CCC2=C(C)C(=O)CCC2(C)C)OO1` [DIACARPEROXIDE A], the IC50 is 22.1 µM. Turning to `CC1=C(CC/C(C)=C/CC[C@@]2(C)CC[C@@H]([C@H](C)C(=O)O)OO2)C(C)(C)CCC1` [EPIMUQUBILIN A], the IC50 stood at 4.8 µM. `COC(=O)[C@H](C)[C@@H]1CC[C@@](C)(CCC2=C(C)C(=O)CCC2(C)C)OO1` [METHYL DIACARNOATE A]: the IC50 is > 30 µM. Consider `COC(=O)[C@H](C)[C@H]1CC[C@@](C)(CCC2=C(C)CCCC2(C)C)OO1` [NUAPAPUIN A METHYL ESTER], for which the IC50 came to 14.1 µM. With `C=C1CCCC(C)(C)C1CC[C@]1(C)CC[C@H]([C@@H](C)C(=O)OC)OO1` (some centres not stated) [NUAPAPUIN B] the figure was 18.9 µM.
